In patent US20230087560A1, “HYDROFLUORETHERS AND METHODS OF USING SAME” (3M INNOVATIVE PROPERTIES COMPANY, priority 2020, published 2023):

Experiments:
[1] = Chemical stability in the presence of DABCO; type: physicochemical; settings: 50° C.
Method: (§1) Chemical Stability: Stability of compounds in the presence of the bases triethylamine (TEA), 1,4-diazabicyclo[2.2.2]octane (DABCO), and N,N,N,N-tetramethylethylene diamine (TMEDA) was tested as follows. To a 20 mL vial equipped with a magnetic stir bar were added the exemplary and comparative materials in the following starting amounts: Example 1-0.30 g (1.0 mmol), CE4-0.30 g (1.0 mmol) and CE5-0.30 g (1.0 mmol). FC-770 (0.40 g, 1.0 mmol) was added as an internal standard since it is known to be stable in the presence of the base materials tested herein. To this mixture was added one of: triethylamine (0.10 g, 1.0 mmol), DABCO (0.10 g, 0.89 mmol), or TMEDA (0.12 g, 1.0 mmol). The resultant mixture was stirred at 50° C. for 24 hours. GC-FID analysis was performed at specific time intervals to monitor the remaining hydrofluoroether and comparative materials present in the mixture.

[2] = Chemical stability in the presence of TMEDA; type: physicochemical; settings: 50° C.
Method: as §1

[3] = Chemical stability in the presence of NMP, fluoride ion content; type: physicochemical; settings: 50° C., 144 h, aqueous layer
Method: Stability of compounds in the presence of N-methylpyrrolidinone (NMP) was tested as follows. To a 20 mL glass vial equipped with a magnetic stir bar was added 0.66 g of NMP (6.7 mmol) and one of the following exemplary or comparative materials in the following starting amounts: Example 1-2.0 g (6.7 mmol); CE4-2.0 g (6.7 mmol); CE5-2.0 g (6.7 mmol), or CE6-2.40 g (6.7 mmol). This mixture was then stirred at 50° C. for 144 h. To the resultant mixture was added H2O (6.0 mL) and the aqueous layer was evaluated for fluoride ion content. The samples were analyzed using an Orion EA 940 meter with an Orion 9609BNWB Fluoride-ISE. Orion Ionplus Fluoride standards were used to calibrate the meter.

[4] = Chemical stability in the presence of triethylamine (TEA); type: physicochemical; settings: 50° C.
Method: as §1

rats = assay: Toxicity screening study in rats, 4-hour inhalation; type: in vivo
Method: To a 3-neck flask equipped with a magnetic stir bar and reflux condenser were charged 1,1,1,3,3,4,4,4-octafluoro-2-(trifluoromethyl)butan-2-olate cesium salt (300 g of a 33 wt % solution in diglyme, 237 mmol). The resultant reaction mixture was heated to 70° C. followed by the dropwise addition of iodomethane (17 mL, 273 mmol). The reaction mixture was allowed to stir overnight at the same temperature. After cooling to room temperature, H2O (400 mL) was added and the mixture was transferred to a 2 L separatory funnel. The bottom, fluorochemical layer was then separated and analyzed by GC-FID indicating a 58% yield of the title compound. Distillation afforded the desired 1,1,1,2,2,4,4,4-octafluoro-3-methoxy-3-(trifluoromethyl)butane (77° C., 740 mm/Hg, 32.1 g, 45% isolated yield) as a colorless liquid. The identity of the purified composition was confirmed by GC-MS analysis.

[5] = Specific heat capacity (Cp) by DSC; type: physicochemical
Method: Specific heat capacity (Cp): Cp was measured using a TA Instruments Model Q2000 DSC (Differential Scanning Calorimeter) instrument. A sapphire standard was run before and after the samples and the average of the measured sapphire heat capacity vs. the theoretical heat capacity was used to correct the measured heat capacity of the sample.

[6] = Kinematic viscosity, Schott-Ubbelohde viscometers; type: physicochemical
Method: Kinematic viscosity: Kinematic viscosity was measured using Schott-Ubbelohde Viscometers (glass capillary viscometers). The viscometers were timed using a viscometer timer available under the trade designation AVS-350 from SI Analytics, College Station, Tex., USA. The viscometer measurement stand and glass viscometer were immersed in a temperature-controlled liquid bath filled with NOVEC 7500 fluid available from 3M Company, Maplewood, Minn., USA. The temperature-controlled liquid bath (available from Lawler Manufacturing Corporation, Edison, N.J., USA), was fitted with a copper tubing coil for liquid nitrogen cooling with fine temperature control provided by the bath's electronic temperature control heater. The fluid was mechanically stirred to provide uniform […] temperature in the bath. The bath controlled the temperature within +0.1° C., measured by a built-in RTD temperature sensor. The sample liquid was added to the viscometer between the two fill lines etched on the viscometer. The viscometer timer automatically pumped the sample fluid above the upper timing mark, then released the fluid and measured the efflux times between the upper and lower timing marks. The fluid meniscus was detected by optical sensors as it passed each timing mark. The sample was drawn up and measured repeatedly; results are provided as averages of multiple determinations. The glass viscometers were calibrated using certified kinematic viscosity standard fluids available from Cannon Instrument Company, State College, Pa., USA, to obtain a calibration constant (cSt/sec) for each viscometer. Kinematic viscosity in centiStokes (cSt) was calculated as the average efflux time (sec) times the viscometer calibration constant (cSt/sec).

[7] = Pour point, determined visually; type: physicochemical
Method: One to two milliliters of the sample were placed in a vial and cooled in a bath until it solidified. The sample was then allowed to warm slowly in the bath and observed every 3-5° C.

Row | Structure (SMILES) | Mole % of Starting Material ([1]; 0 hr) [Mole %] | Mole % of Starting Material ([1]; 16 hr) [Mole %] | Mole % of Starting Material ([1]; 24 hr) [Mole %] | Mole % of Starting Material ([2]; 0 hr) [Mole %] | Mole % of Starting Material ([2]; 16 hr) [Mole %] | Mole % of Starting Material ([2]; 24 hr) [Mole %] | Fluoride ion content [3] [ppm] | Mole % of Starting Material ([4]; 0 hr) [Mole %] | Mole % of Starting Material ([4]; 16 hr) [Mole %] | Mole % of Starting Material ([4]; 24 hr) [Mole %] | 4-hour inhalation LC50 (rats) | Specific Heat Capacity [5] [J/g · K] | Kinematic Viscosity ([6]; 0.0 ° C.) [cSt] | Kinematic Viscosity ([6]; −10.0 ° C.) [cSt] | Kinematic Viscosity ([6]; −20.0 ° C.) [cSt] | Kinematic Viscosity ([6]; −30.0 ° C.) [cSt] | Kinematic Viscosity ([6]; −40.0 ° C.) [cSt] | pour point [7] [°C]
1 | COC(F)(C(F)(F)F)C(F)(C(F)(F)F)C(F)(F)F (centres unmarked) [CE4, 1,1,1,2,3,4,4,4-octafluoro-2-methoxy-3-(trifluoromethyl)butane] | 100 | 66.7 | 56.7 | 100 | 53.3 | 53.3 | 388.8 | 100 | 100 | 96.7 | – | – | – | – | – | – | – | –
2 | COC(F)(F)C(F)(C(F)(F)F)C(F)(F)C(F)(F)F (centres unmarked) [CE5, 2-(difluoro(methoxy)methyl)-1,1,1,2,3,3,4,4,4-nonafluorobutane] | 100 | 46.7 | 43.3 | 100 | 36.7 | 36.7 | 657.8 | 100 | 100 | 86.7 | – | – | – | – | – | – | – | –
3 | COC(C(F)(F)F)(C(F)(F)F)C(F)(F)C(F)(F)F [Example 1, 1,1,1,2,2,4,4,4-octafluoro-3-methoxy-3-(trifluoromethyl)butane] | 100 | 100 | 100 | 100 | 100 | 100 | 15.1 | 100 | 100 | 100 | > 1,840 ppm | – | – | – | – | – | – | –
4 | COC(C(F)(F)C(F)(F)F)(C(F)(F)C(F)(F)F)C(F)(F)C(F)(F)F [Example 3, 1,1,1,2,2,4,4,5,5,5-decafluoro-3-methoxy-3-(1,1,2,2,2-pentafluoroethyl)pentane] | – | – | – | – | – | – | – | – | – | – | – | 1.16 | 0.97 | 1.65 | 2.15 | 2.88 | 5.19 | −62
